Here are results for one compound from patent US20170176446A1, “Methods for Determining the Oncogenic Condition of Cell, Uses Thereof, and Methods for Treating Cancer” (INSERM (INSTITUT NATIONAL DE LA SANTE ET DE LA RECHERCHE …, priority 2009, published 2017).

The inhibition is the change of the read-out against control, counted positive when it falls.

One assay deals with MCF7 cells. Description: OCDO production by MCF7 cells incubated with [14C]CE, thin-layer chromatography. The assay is classed as cell-based, human. A digest of the protocol: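 MCF7 cells incubated with [14C]CE; lipids extracted, separated by silica TLC in ethyl acetate and quantified by phosphorimager densitometry. OCDO inhibition came from oxysterol proportions, OCDO over CEE+CE+CT+OCDO.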

The test system of the next assay is MDA-MB-231. Description: Inhibition of OCDO production by PBPE in MDA-MB-231. It counts as cell-based. Conditions: Homo sapiens, 40 μM PBPE, 48 hours. As for the experimental part:
(§1) An analogous experiment was reproduced with different cell lines, with the cells tested being incubated for 48 hours in a 40 μM solution of PBPE. It was noted that the OCDO was 100% inhibited for all the lines in the following table that were tested:
(§2) Generally, in order to establish the percentages of OCDO inhibition from the thin-layer chromatography (TLC) plates obtained as in assay 2, the radioactive metabolites are identified and quantified on the basis of said plates using a europium-sensitive plate of GP Phosphor screen type (GE Healthcare) and a Storm 840 phosphorimagor (GE Healthcare). The proportion of radiolabeled oxysterols is determined on the autoradiogram obtained by densitometry using the Image Quant 5.2 software. The percentage is calculated on the basis of the ratio between the amount of oxysterols quantified divided by the sum of the amounts of oxysterols (CEE+CE+CT+OCDO). Since the CEE (CE ester) originates exclusively from the CE, the percentage CE is calculated on the basis of the ratio (CE+CEE)/(CE+CEE+CT+OCDO).

In another assay the test system is A-549. Description: Inhibition of OCDO production by PBPE in A-549. Conditions: Homo sapiens, A549, 40 μM PBPE, 48 hours. It counts as cell-based. The method, then: as §1, §2
The next assay deals with B-16-F10. As to the kind of experiment: Inhibition of OCDO production by PBPE in B-16-F10. The assay is classed as cell-based, murine. Conditions: Mus musculus, B16-F10, 40 μM PBPE, 48 hours. The method, then:
as §1, §2

The subject of a further assay is U-937. As to the kind of experiment: Inhibition of OCDO production by PBPE in U-937. It counts as cell-based. Conditions: Homo sapiens, 40 μM PBPE, 48 hours. As for the experimental part:
as §1, §2

The next assay deals with HeLa. As to the kind of experiment: Inhibition of OCDO production by PBPE in HeLa. The assay is classed as cell-based. The conditions noted are these: Homo sapiens, 40 μM PBPE, 48 hours. As for the experimental part: as §1, §2
The subject of a further assay is SH-N-SH. Description: Inhibition of OCDO production by PBPE in SH-N-SH. It counts as cell-based. The conditions noted are these: Homo sapiens, 48 h, read-out: Inhibition of OCDO production. The method, then: as §1, §2
A further assay concerns Saos-2. As to the kind of experiment: Inhibition of OCDO production by PBPE in Saos-2. Conditions: Homo sapiens, 40 μM PBPE, 48 hours. The assay is classed as cell-based. The method, then: as §1, §2
Another assay has as its system TT. Description: Inhibition of OCDO production by PBPE in TT. Conditions: Homo sapiens, 48 h, read-out: Inhibition of OCDO production. It counts as cell-based. As for the experimental part:
as §1, §2

A further assay addresses T1, ChEH (Homo sapiens, UniProt Q15125).
T1 construct: MCF7 tumor cells, which originate from the American Tissue Culture Collection (ATCC), were used; host or cells: MCF7
Description: Inhibition of ChEH activity in MCF7 cells (TLC of [14C]CE conversion). The assay is classed as cell-based. The conditions noted are these: tamoxifen 0.01-5 μM with [14C]CEα; PBPE 0.01-10 μM with [14C]CEβ. As for the experimental part:
For this experiment, an aminoalkyl sterol included in French patent 2 838 741 (and also see: de Medina et al., J Med Chem: 2009, vol. 52, No. 23, p. 7765-7777), having the formula: 6-N-[2-(3H-imidazol-4-yl)ethylamino]cholestane-3β,5α-diol (DDA), was chosen. […]
A thin-layer chromatography was carried out, the plate of which has been reproduced in FIG. 23. On this plate, the incubation is carried out, for lane 1, with [^14C]CE; for lane 2, with [^14C]CT; for lane 3, with the vehicle solvent, which is the same as that used for assays 1 to 5; for lane 4, with [14C]CE and 0.1 μM of the aminoalkyl sterol; and for lane 5, with [^14C]CE and a concentration of 1 μM of the aminoalkyl sterol.

Another assay concerns TS/A cells. As to the kind of experiment: Tumor size of TS/A tumors implanted in BALB/c mice, intratumoral treatment. It counts as in vivo. The conditions noted are these: PBPE 40 μM, 100 μl intratumorally once a day. The method, then: A cell culture of TS/A cells was first performed. These TS/A cells are mouse mammary adenocarcinomas (see Nanni P et al., Clin. Exp. Metastasis, 1983 October-December; 1(4): 373-80). The cells are cultured, at 37° C. under 5% CO2, in a DMEM medium supplemented with 2 g/liter of sodium carbonate, 1.2 mM of glutamine (pH 7.4 at 23° C.), 5% of fetal bovine serum (Gibco) and 2.5 ml of antibiotics per liter of medium (penicillin/streptomycin).
The TS/A cells are recovered with trypsin, washed twice and suspended in PBS buffer. The TS/A cells (approximately 4×10^6 […] cells/0.1 ml) are then injected subcutaneously into the flank of 6-week-old female BALB/c mice (supplied by Charles River). […] The animals (10 mice per group) are monitored regularly for tumor development. The volume of the tumors is calculated according to the following formula: L×l^2×0.5 (L is the length and l is the width of the tumor). The experiment was reproduced twice. The results are given in FIG. 18 (the arrow indicates the beginning of the treatment).

[1] abbreviates: MCF7 cells, [14C]CEα, three days, concentration given with each compound, share of labeled oxysterols.

Structures are written as SMILES. Bounds are passed on as bounds.

T1 sequence (Q15125 whole entry): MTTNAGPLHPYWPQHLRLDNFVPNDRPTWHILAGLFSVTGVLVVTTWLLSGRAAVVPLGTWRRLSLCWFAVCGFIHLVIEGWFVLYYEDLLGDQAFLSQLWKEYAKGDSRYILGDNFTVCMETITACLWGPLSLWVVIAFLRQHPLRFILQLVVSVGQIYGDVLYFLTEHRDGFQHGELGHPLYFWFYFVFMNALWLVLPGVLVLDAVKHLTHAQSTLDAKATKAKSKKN

Take `c1ccc(Cc2ccc(OCCN3CCCC3)cc2)cc1` [PBPE, N,N-pyrrolidino-[(4-benzyl)phenoxy]ethanamine]: the inhibition at 40 µM with MCF7 cells (Homo sapiens, MCF7, MCF-7, 40 μM PBPE, 48 hours) stood at 100%; in the assay with MDA-MB-231, 100%; with A-549, 100%; with B-16-F10, 100%; with U-937, 100%; in the assay with HeLa it was 100%. Besides, the inhibition at 40 µM in the assay with SH-N-SH, with Saos-2 and with TT was 100% in each case. In addition, in the assay on MCF7 cells (setting [1]), the “% CE” value is 89.2%. Also, the “% CT” value with MCF7 cells (setting [1]) is on record as 4.6%. Further, the “% OCDO” value in the assay with MCF7 cells (setting [1]) was found to be 6.2%. Also, the “OCDO production by MCF-7 (% control)” value in the assay with MCF7 cells (concentration in μM in parentheses after each molecule, control = 100) is reported as below 1 % control. Also, the “inhibition of the ChEH activity (3 days) in MCF7 cells” value on ChEH is on record as “Dose-dependent inhibition”. Also, the “Tumor size (% control)” value in the assay with TS/A cells (Day 28) is recorded as 71.6 ± 7 % control; with TS/A cells (Day 37) it was 54.5 ± 8 % control.
